Target: T1, RORγ (UniProt P51449)
T1 construct: hRORg-LBD|aa259-518|NP_005051.2; hRORgt|aa1-497|NP_001001523 (RORg, t isoform, 497aa); mRORg-LBD|aa264-516|NP_035411
T1 sequence (P51449 1-518): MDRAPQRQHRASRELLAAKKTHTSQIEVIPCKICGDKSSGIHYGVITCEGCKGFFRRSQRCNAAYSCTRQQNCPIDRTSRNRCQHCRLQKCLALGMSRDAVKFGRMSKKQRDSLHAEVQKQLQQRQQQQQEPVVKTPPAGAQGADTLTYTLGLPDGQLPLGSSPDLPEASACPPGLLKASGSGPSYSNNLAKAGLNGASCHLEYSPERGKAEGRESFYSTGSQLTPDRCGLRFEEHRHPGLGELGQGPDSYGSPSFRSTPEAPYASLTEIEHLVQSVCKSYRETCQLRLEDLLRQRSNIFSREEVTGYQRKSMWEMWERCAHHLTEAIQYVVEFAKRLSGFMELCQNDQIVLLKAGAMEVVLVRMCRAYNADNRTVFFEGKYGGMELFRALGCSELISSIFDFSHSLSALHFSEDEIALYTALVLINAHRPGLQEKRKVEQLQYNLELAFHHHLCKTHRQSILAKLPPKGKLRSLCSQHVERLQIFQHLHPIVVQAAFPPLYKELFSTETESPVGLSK
Type: cell-based
Settings: 293T cells, 16 h; for pIC50 (FF): firefly (FF) luciferase; for pIC50 (REN): renilla normalised (RENnorm) luciferase
Procedure: Determination of a ligand mediated Gal4 promoter driven transactivation to quantify ligand binding to RORγ was performed as follows: DNA encoding three different RORγ. protein fragments was cloned into vector pCMV-BD (Stratagene). Expression was under control of a CMV promoter and as fusion to the DNA-binding domain of the yeast protein GAL4. Other vectors used were pFR-Luc (Stratagene) as regulated reporter plasmid. pFR-Luc contains a synthetic promoter with five tandem repeats of the yeast GAL4 binding sites that control expression of the Photinus pyralis (American firefly) luciferase gene. In order to improve experimental accuracy the plasmid pRL-CMV was cotransfected. pRL-CMV contains the constitutive CMV promoter, controlling the expression of the Renilla reniformis luciferase.
All Gal4 reporter gene assays were done in 293T cells (DSMZ (German Collection of Microorganisms and Cell Cultures), Braunschweig, Germany, ACC635) grown in Minimum Essential Medium (MEM) with Phenol Red. The medium is supplemented with 10% fetal bovine serum, 0.1 mM nonessential amino acids, 1 mM sodium pyruvate, 1% Glutamax and 100 units Penicilin/[…] per mL at 37° C. in 5% CO2.
For the assay, […] were plated per well in 96 well plates in 100 μL per well, incubated over night at 37° C. in 5% CO2. The following day, medium was discarded and the cells were transiently transfected using 20 μL per well of a OptiMEM—PEI-based transfection-reagent (Sigma-Aldrich, 408727) including the three plasmids described above. About 4 h after addition of the transfection solution, fresh Minimal Essential Medium (MEM, same composition as used for plating cells, but without serum) was added. Then compound stocks, prediluted in MEM (same composition as used for plating cells) were added (final vehicle concentration not exceeding 0.1%).
All experiments were done at least in triplicates.
It is understood that the data illustrated below may have reasonable variation depending on the specific conditions and procedures used by the person conducting the test.

SMILES | pIC50 (FF) | pIC50 (REN)
Cn1c(C(=O)N[C@H]2C[C@H](C(=O)O)C2)cc(-c2ccc(S(=O)(=O)NC(C)(C)C)c3ccccc23)c1C(=O)C1CCCCC1 [26/2] | 7.0 | 7.2
Cn1c(C(=O)NCC(C)(C)O)cc(-c2ccc(S(=O)(=O)NC(C)(C)C)c3ccccc23)c1C(=O)C1CCCCC1 [26/3] | 7.5 | 7.8
Cn1c(C(=O)NC2CCS(=O)(=O)CC2)cc(-c2ccc(S(=O)(=O)NC(C)(C)C)c3ccccc23)c1C(=O)C1CCCCC1 [26/4] | 7.7 | 7.8
Cn1c(C(=O)NCC(C)(C)O)cc(-c2cc(C(C)(C)C)cc(C3(C)CC3)c2)c1C(=O)C1CCCCC1 [Example 26/1] | 7.8 | 7.9
CC(C)(C)c1cc(-n2nc(C(=O)N[C@H]3C[C@H](C(=O)O)C3)cc2OC2CCCCC2)cc(C2(C)CC2)c1 [Example 110, trans-3-(1-(3-(tert-Butyl)-5-(1-methylcyclopropyl)phenyl)-5-(cyclohexyloxy)-1H-pyrazole-3-carboxamido)cyclobutanecarboxylic acid] | nt/6.5/6.5 | nt/6.5/6.5
CC(C)(C)c1cc(-n2nc(C(=O)N[C@H]3C[C@H](C(=O)O)C3)c(Cl)c2OC2CCCCC2)cc(C2(C)CC2)c1 [Example 111, trans-3-(1-(3-(tert-Butyl)-5-(1-methylcyclopropyl)phenyl)-4-chloro-5-(cyclohexyloxy)-1H-pyrazole-3-carboxamido)cyclobutanecarboxylic acid] | 7.3 | 7.5
CC(C)(C)c1cc(-n2nc(C(=O)NC3CCOCC3)c(Cl)c2OC2CCCCC2)cc(C2(C)CC2)c1 [Example 111/1] | nt/6.6/6.6 | nt/6.6/6.6
CC(C)(C)NS(=O)(=O)c1ccc(-c2c(Cl)c(C(=O)NC34CCC(C(=O)O)(CC3)CC4)nn2CC2CCCCC2)c(Cl)c1Cl [Example 113, 4-(5-(4-(N-(tert-Butyl)sulfamoyl)-2,3-dichlorophenyl)-4-chloro-1-(cyclohexylmethyl)-1H-pyrazole-3-carboxamido)bicyclo[2.2.2]octane-1-carboxylic acid] | 7.5 | 7.6
CC(C)(C)NS(=O)(=O)c1ccc(-n2nc(C(=O)N[C@H]3C[C@H](C(=O)O)C3)c(Cl)c2CC2CCCCC2)c2ccccc12 [Example 114, (trans)-3-(1-(4-(N-(tert-Butyl)sulfamoyl)naphthalen-1-yl)-4-chloro-5-(cyclohexyl-methyl)-1H-pyrazole-3-carboxamido)cyclobutanecarboxylic acid] | nt/6.8/6.8 | nt/6.8/6.8
CC(C)(C)NS(=O)(=O)c1ccc(-n2nc(C(=O)NC3CCS(=O)(=O)CC3)c(Cl)c2CC2CCCCC2)c2ccccc12 [Example 114/1] | 6.9 | 7.0
Cc1c(C(=O)NC2CCS(=O)(=O)CC2)nc(-c2ccc(S(=O)(=O)NC(C)(C)C)c3ccccc23)n1CC1CCCCC1 [Example 320, 2-(4-(N-(tert-Butyl)sulfamoyl)naphthalen-1-yl)-1-(cyclohexylmethyl)-N-(1,1-dioxidotetrahydro-2H-thiopyran-4-yl)-5-methyl-1H-imidazole-4-carboxamide] | 5.9 | 6.0
